This note sets out measurements from patent US11339130B1 (Blade Therapeutics, Inc., priority 2016, dated 2022).

The test system of experiment [1] is Calpain activity in SH-SY5Y cells (SBDP-150). The experiment can be described thus: SH-SY5Y Spectrin western blot assay (SBDP-150 breakdown product, A23187-induced). The class given is cell-based. The note with it: SH-SY5Y cells, read-out: SH-SY5Y Spectrin IC50. (In general: A western blot detects proteins with antibodies after separation by electrophoresis.)
In experiment [2] the target is T1, Human Calpain 2/NS1 (Homo sapiens, UniProt P17655).
T1 sequence (P17655 1-700): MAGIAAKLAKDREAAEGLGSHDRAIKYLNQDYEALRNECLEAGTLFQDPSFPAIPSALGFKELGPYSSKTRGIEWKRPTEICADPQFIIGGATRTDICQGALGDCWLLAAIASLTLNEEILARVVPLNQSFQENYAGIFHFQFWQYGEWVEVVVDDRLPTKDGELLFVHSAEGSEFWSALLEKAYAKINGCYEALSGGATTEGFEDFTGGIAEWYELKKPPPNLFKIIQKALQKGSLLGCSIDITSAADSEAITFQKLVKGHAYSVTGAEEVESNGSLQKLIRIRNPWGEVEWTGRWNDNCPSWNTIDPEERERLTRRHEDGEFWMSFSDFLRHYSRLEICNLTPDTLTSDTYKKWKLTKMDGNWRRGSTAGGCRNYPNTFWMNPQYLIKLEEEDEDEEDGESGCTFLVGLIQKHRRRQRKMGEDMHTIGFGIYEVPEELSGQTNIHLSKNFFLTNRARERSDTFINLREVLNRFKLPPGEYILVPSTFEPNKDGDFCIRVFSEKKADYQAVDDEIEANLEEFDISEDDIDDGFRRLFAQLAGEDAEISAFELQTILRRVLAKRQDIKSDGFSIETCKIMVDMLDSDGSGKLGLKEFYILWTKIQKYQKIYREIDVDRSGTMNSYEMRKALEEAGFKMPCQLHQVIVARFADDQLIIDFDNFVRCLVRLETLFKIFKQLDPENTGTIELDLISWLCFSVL
T1 sequence (P04632 1-268 partner): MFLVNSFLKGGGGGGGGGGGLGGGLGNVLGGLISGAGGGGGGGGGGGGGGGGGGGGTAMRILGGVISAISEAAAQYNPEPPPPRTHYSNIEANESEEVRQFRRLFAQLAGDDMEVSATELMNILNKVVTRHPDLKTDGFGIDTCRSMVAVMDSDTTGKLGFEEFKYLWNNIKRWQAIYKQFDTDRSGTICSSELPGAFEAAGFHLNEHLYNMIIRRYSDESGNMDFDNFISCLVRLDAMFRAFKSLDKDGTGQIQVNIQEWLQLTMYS
The experiment can be described thus: Calpain inhibition continuous fluorescence (FRET) assay, Human Calpain 2/NS1. The note with it: read-out: Human Calpain 2/NS1 IC50. The class given is biochemical. In short, it runs like this: (§1)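 Continuous FRET read (ex 490/em 520 nm, 10 min) of calpain 1, 2 or 9 cleaving an internally quenched 5-FAM peptide, triggered by substrate with CaCl2 after enzyme–inhibitor incubation at ambient 25 °C, pH 7.5 Tris/NaCl/DTT buffer. IC50 from initial rates (1-5 min) via 4-parameter fit.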

Experiment [3] deals with T2, Human Calpain 9/NS1 (Homo sapiens, UniProt O14815).
T2 sequence (O14815 1-690): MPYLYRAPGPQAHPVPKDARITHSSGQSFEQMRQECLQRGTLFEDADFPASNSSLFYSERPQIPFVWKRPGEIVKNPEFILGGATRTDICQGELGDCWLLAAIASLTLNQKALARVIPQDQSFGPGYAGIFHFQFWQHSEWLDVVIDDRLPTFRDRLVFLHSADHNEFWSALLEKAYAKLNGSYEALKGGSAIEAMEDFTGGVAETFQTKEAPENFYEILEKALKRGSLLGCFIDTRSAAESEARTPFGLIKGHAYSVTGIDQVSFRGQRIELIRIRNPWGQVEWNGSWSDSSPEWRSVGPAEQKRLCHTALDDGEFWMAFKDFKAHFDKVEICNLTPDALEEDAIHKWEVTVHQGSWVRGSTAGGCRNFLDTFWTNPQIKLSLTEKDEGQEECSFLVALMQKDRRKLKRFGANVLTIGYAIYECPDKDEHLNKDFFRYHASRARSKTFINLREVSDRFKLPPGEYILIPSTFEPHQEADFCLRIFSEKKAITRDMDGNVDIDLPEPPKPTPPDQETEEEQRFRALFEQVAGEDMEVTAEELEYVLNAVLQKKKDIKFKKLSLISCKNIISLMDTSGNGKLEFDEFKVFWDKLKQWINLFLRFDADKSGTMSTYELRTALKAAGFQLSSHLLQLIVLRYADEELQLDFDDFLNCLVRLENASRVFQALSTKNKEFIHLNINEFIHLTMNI
T2 sequence (P04632 1-268 partner): T1 sequence (P04632 1-268 partner)
The experiment in a line: Calpain inhibition continuous fluorescence (FRET) assay, Human Calpain 9/NS1. The class given is biochemical. The note with it: read-out: Human Calpain 9/NS1 IC50. An outline of the steps:
as §1

Experiment [4] has as its system Calpain activity in SH-SY5Y cells. The experiment can be described thus: SH-SY5Y + AMC fluorescence assay (Suc-LLVY-AMC substrate). In kind it is cell-based. Conditions: read-out: SH-SY5Y + AMC IC50.
Experiment [5] concerns the target T3, Human Calpain 1/NS1 (Homo sapiens, UniProt P07384).
T3 sequence (P07384 1-714): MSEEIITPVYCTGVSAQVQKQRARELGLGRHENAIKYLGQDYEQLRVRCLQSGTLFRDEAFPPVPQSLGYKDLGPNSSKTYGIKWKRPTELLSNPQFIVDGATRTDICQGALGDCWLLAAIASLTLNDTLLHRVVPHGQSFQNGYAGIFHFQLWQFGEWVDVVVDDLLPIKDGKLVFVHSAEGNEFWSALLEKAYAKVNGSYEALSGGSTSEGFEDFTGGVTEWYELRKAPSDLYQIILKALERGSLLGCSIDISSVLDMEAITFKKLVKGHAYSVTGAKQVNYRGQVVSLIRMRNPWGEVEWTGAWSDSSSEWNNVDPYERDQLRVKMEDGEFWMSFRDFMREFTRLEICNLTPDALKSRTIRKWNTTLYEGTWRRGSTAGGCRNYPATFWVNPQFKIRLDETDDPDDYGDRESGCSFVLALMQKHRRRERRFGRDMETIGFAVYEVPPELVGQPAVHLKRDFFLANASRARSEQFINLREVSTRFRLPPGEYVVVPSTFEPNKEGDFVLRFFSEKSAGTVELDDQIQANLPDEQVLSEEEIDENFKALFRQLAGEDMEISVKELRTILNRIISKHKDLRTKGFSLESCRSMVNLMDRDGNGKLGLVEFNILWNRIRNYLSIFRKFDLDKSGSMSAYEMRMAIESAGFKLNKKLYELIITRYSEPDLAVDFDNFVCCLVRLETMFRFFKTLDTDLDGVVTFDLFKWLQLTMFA
T3 sequence (P04632 1-268 partner): T1 sequence (P04632 1-268 partner)
The experiment in a line: Calpain inhibition continuous fluorescence (FRET) assay, Human Calpain 1/NS1. In kind it is biochemical. Conditions: read-out: Human Calpain 1/NS1 IC50. In short, it runs like this: as §1

[6] abbreviates: Homo sapiens, A23187-induced SBDP-150, western blot.
Where [7] appears, read: Homo sapiens, Column D, A23187-induced SBDP-150.

Like-named read-outs stand apart in the source and are kept apart here. Bounds are passed on as bounds.

On to `NC(=O)C(=O)C(Cc1ccccc1)NC(=O)c1cnoc1-c1ccccc1F` (stereo not drawn) [Compound 556, N-(4-amino-3,4-dioxo-1-phenylbutan-2-yl)-5-(2-fluorophenyl)isoxazole-4-carboxamide], for which the IC50 in experiment [1] (setting [6]) is under 10 µM; in experiment [2], under 3 µM; in experiment [3] it was under 3 µM; in experiment [4], under 10 µM; in experiment [5], under 3 µM.

`Cc1cc(C(=O)N[C@@H](Cc2ccccc2)C(=O)C(N)=O)n(-c2nc3ccccc3n2C)n1` [Compound 294, (S)—N-(4-amino-3,4-dioxo-1-phenylbutan-2-yl)-3-methyl-1-(1-methyl-1H-benzo[d]imidazol-2-yl)-1H-pyrazole-5-carboxamide]: the IC50 in experiment [1] (setting [7]) is 10 to 25 µM; in experiment [2] (Column B) it was 3 to 10 µM; in experiment [3] (Column C), under 3 µM; in experiment [4] (Column E), over 25 µM; in experiment [5] (Column A) it was 3 to 10 µM.

Turning to `NC(=O)C(=O)[C@H](Cc1ccccc1)NC(=O)c1cn(CC2CC2)nc1-c1ccccc1` [Compound 251, (S)—N-(4-amino-3,4-dioxo-1-phenylbutan-2-yl)-1-(cyclopropylmethyl)-3-phenyl-1H-pyrazole-4-carboxamide], the IC50 in experiment [1] (setting [7]) was over 25 µM; in experiment [2] (Column B), under 3 µM; in experiment [3] (Column C) it was under 3 µM; in experiment [4] (Column E), over 25 µM; in experiment [5] (Column A) it was under 3 µM.

In the case of `NC(=O)C(=O)C(Cc1ccccc1)NC(=O)c1nsnc1-c1cccc(F)c1F` (stereo not drawn) [Compound 372, N-(4-amino-3,4-dioxo-1-phenylbutan-2-yl)-4-(2,3-difluorophenyl)-1,2,5-thiadiazole-3-carboxamide], the IC50 was under 10 µM in experiment [1] (setting [6]); under 3 µM in experiment [2]; under 3 µM in experiment [3]; under 10 µM in experiment [4]; under 3 µM in experiment [5].

Regarding `NC(=O)C(=O)C(Cc1ccccc1)NC(=O)c1cc(C(F)(F)F)nn1-c1ncccn1` (stereo not drawn) [Compound 349, N-(4-amino-3,4-dioxo-1-phenylbutan-2-yl)-1-(pyrimidin-2-yl)-3-(trifluoromethyl)-1H-pyrazole-5-carboxamide], the IC50 in experiment [1] (setting [6]) is over 25 µM; in experiment [2] it was under 3 µM; in experiment [3], under 3 µM; in experiment [4], under 10 µM; in experiment [5], under 3 µM.

On to `Cn1cc(C(=O)NC(Cc2ccccc2)C(=O)C(N)=O)c(Cn2ncc3cnccc32)n1` (stereo not drawn) [Compound 408, 3-((1H-pyrazolo[4,3-c]pyridin-1-yl)methyl)-N-(4-amino-3,4-dioxo-1-phenylbutan-2-yl)-1-methyl-1H-pyrazole-4-carboxamide], for which the IC50 in experiment [1] (setting [6]) is 10 to 25 µM; in experiment [2], 3 to 10 µM; in experiment [3], over 10 µM; in experiment [4], under 10 µM; in experiment [5], over 10 µM.

Turning to `Cc1cc(-c2nn(C)cc2C(=O)NC(Cc2ccccc2)C(=O)C(N)=O)c(C)s1` (stereo not drawn) [Compound 499, N-(4-amino-3,4-dioxo-1-phenylbutan-2-yl)-3-(2,5-dimethylthiophen-3-yl)-1-methyl-1H-pyrazole-4-carboxamide], the IC50 is 10 to 25 µM in experiment [1] (setting [6]); under 3 µM in experiment [2]; under 3 µM in experiment [3]; under 10 µM in experiment [4]; under 3 µM in experiment [5].

For the compound `Cn1cc(C(=O)NC(Cc2ccccc2)C(=O)C(N)=O)c(-c2cc3ccccc3cn2)n1` (stereo not drawn) [Compound 602, N-(4-amino-3,4-dioxo-1-phenylbutan-2-yl)-3-(isoquinolin-3-yl)-1-methyl-1H-pyrazole-4-carboxamide], the IC50 in experiment [1] (setting [6]) is 10 to 25 µM; in experiment [2] it was under 3 µM; in experiment [3] it was under 3 µM; in experiment [4], over 25 µM; in experiment [5] it was under 3 µM.

`Cn1cc(C(=O)NC(Cc2ccccc2)C(=O)C(N)=O)c(-c2ccoc2)n1` (stereo not drawn) [Compound 502, N-(4-amino-3,4-dioxo-1-phenylbutan-2-yl)-3-(furan-3-yl)-1-methyl-1H-pyrazole-4-carboxamide]: the IC50 is 10 to 25 µM in experiment [1] (setting [6]); under 3 µM in experiment [2]; under 3 µM in experiment [3]; under 10 µM in experiment [4]; under 3 µM in experiment [5].

`Cc1onc(-c2ccccc2)c1C(=O)N[C@@H](Cc1ccccc1)C(=O)C(N)=O` [Compound 27, (S)—N-(4-amino-3,4-dioxo-1-phenylbutan-2-yl)-5-methyl-3-phenylisoxazole-4-carboxamide]: the IC50 was 10 to 25 µM in experiment [1] (setting [7]); under 3 µM in experiment [2] (Column B); under 3 µM in experiment [3] (Column C); over 25 µM in experiment [4] (Column E); under 3 µM in experiment [5] (Column A).

Turning to `Cc1cc(C(=O)N[C@@H](Cc2ccccc2)C(=O)C(N)=O)n(-c2ncc(-c3ccccc3)s2)n1` [Compound 113, (S)—N-(4-amino-3,4-dioxo-1-phenylbutan-2-yl)-3-methyl-1-(5-phenylthiazol-2-yl)-1H-pyrazole-5-carboxamide], the IC50 in experiment [1] (setting [7]) is under 10 µM; in experiment [2] (Column B) it was under 3 µM; in experiment [3] (Column C), under 3 µM; in experiment [4] (Column E), over 25 µM; in experiment [5] (Column A), under 3 µM.

Regarding “(S)—N-(4-amino-3,4-dioxo-1-phenylbutan-2-yl)-4-(2-fluorophenyl)-2-methyloxazole-5-carboxamide [Compound 267]”, the IC50 in experiment [1] (Column D, A23187-induced SBDP-150) was 10 to 25 µM; in experiment [2] (Column B), under 3 µM; in experiment [3] (Column C), under 3 µM; in experiment [4] (Column E) it was under 10 µM; in experiment [5] (Column A) it was under 3 µM.
